Test results as given in patent US11932636B2, “RAD51 inhibitors” (Cyteir Therapeutics, Inc., priority 2019, dated 2024).

Tested on: Daudi cells (AID positive)
Assay: Compound primary screening: cell death in AID positive Daudi cells (Cell-Titer Glo, Day 7)
Type: cell-based
Details: Homo sapiens, 168 h; Daudi cells, AID positive; cell death on Day 7, Cell-Titer Glo; read-out: Cellular activity in AID + (Daudi)
Method in brief: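 AID-positive Daudi cells were seeded at 1250 cells per well and treated with serially diluted compound delivered from a DMSO/media master plate. Cultures were incubated at 37 °C, and cell death was measured on Day 7 with Cell-Titer Glo luminescence.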

`CCNS(=O)(=O)c1cc(Nc2ccncc2)ccc1-c1cnc([C@H]2CC[C@H](NC(=O)OC(C)C)CC2)s1` [Compound 125, isopropyl trans-N-[4-[5-[2-(ethylsulfamoyl)-4-[(pyridin-4-yl)amino]phenyl]thiazol-2-yl]cyclohexyl]carbamate] and `CCNS(=O)(=O)c1cc(Nc2cccnc2)ccc1-c1cnc([C@H]2CC[C@H](NC(=O)OC(C)C)CC2)s1` [Compound 128, isopropyl trans-N-[4-[5-[2-(ethylsulfamoyl)-4-[(pyridin-3-yl)amino]phenyl]thiazol-2-yl]cyclohexyl]carbamate] cannot be ordered by EC50: < 100 nM for the first, < 100 nM for the second.

First: CCNS(=O)(=O)c1cc(Nc2ccccn2)ccc1-c1cnc([C@H]2CC[C@H](NC(=O)OC(C)C)CC2)s1 [Compound 126, isopropyl trans-N-[4-[5-[2-(ethylsulfamoyl)-4-[(pyridin-2-yl)amino]phenyl]thiazol-2-yl]cyclohexyl]carbamate]
Second: CCNS(=O)(=O)c1cc(Nc2ncccn2)ccc1-c1cnc([C@H]2CC[C@H](NC(=O)OC(C)C)CC2)s1 [Compound 127, isopropyl trans-N-[4-[5-[2-(ethylsulfamoyl)-4-[(pyrimidin-2-yl)amino]phenyl]thiazol-2-yl]cyclohexyl]carbamate]
The EC50 of the first is lower: < 100 nM for the first, 100 to 1000 nM for the second.

Compared with `CCNS(=O)(=O)c1cc(Nc2ccnn2C(C)C)ccc1-c1cnc([C@H]2CC[C@H](NC(=O)OC(C)C)CC2)s1` [Compound 129, isopropyl trans-N-[4-[5-[2-(ethylsulfamoyl)-4-[(1-isopropyl-1H-pyrazol-5-yl)amino]phenyl]thiazol-2-yl]cyclohexyl]carbamate], `CCNS(=O)(=O)c1cc(Nc2cncn2C(C)C)ccc1-c1cnc([C@H]2CC[C@H](NC(=O)OC(C)C)CC2)s1` [Compound 138, isopropyl trans-N-[4-[5-[2-(ethylsulfamoyl)-4-[(3-isopropylimidazol-4-yl)amino]phenyl]thiazol-2-yl]cyclohexyl]carbamate] is higher in EC50: < 100 nM for the first, 100 to 1000 nM for the second.

`CCNS(=O)(=O)c1cc(N2CCC(O)CC2)ccc1-c1cnc([C@H]2CC[C@H](NC(=O)OC(C)C)CC2)s1` [Compound 130, isopropyl trans-N-[4-[5-[2-(ethylsulfamoyl)-4-[4-hydroxypiperidin-1-yl]phenyl]thiazol-2-yl]cyclohexyl]carbamate] and `CCNS(=O)(=O)c1cc(N2CCOCC2)ccc1-c1cnc([C@H]2CC[C@H](NC(=O)OC(C)C)CC2)s1` [Compound 134, isopropyl trans-N-[4-[5-[2-(ethylsulfamoyl)-4-[morpholino]phenyl]thiazol-2-yl]cyclohexyl]carbamate] fall in the same range of EC50: 100 to 1000 nM for the first, 100 to 1000 nM for the second.

Compared with `CCNS(=O)(=O)c1cc(N(C)CCO)ccc1-c1cnc(C2CCC(NC(=O)OC(C)C)CC2)s1` (stereo not drawn) [Compound 131, isopropyl trans-N-[4-[5-[2-(ethylsulfamoyl)-4-[(2-hydroxyethyl) (methyl))amino]phenyl]thiazol-2-yl]cyclohexyl]carbamate], `CCNS(=O)(=O)c1cc(N(C)CCOC)ccc1-c1cnc(C2CCC(NC(=O)OC(C)C)CC2)s1` (stereo not drawn) [Compound 132, isopropyl trans-N-[4-[5-[2-(ethylsulfamoyl)-4-[(2-methoxyethyl) (methyl))amino]phenyl]thiazol-2-yl]cyclohexyl]carbamate] is higher in EC50: < 100 nM for the first, 100 to 1000 nM for the second. The first is the more potent here.

Compared with `CCNS(=O)(=O)c1cc(N2CCS(=O)(=O)CC2)ccc1-c1cnc([C@H]2CC[C@H](NC(=O)OC(C)C)CC2)s1` [Compound 133, isopropyl trans-N-[4-[5-[2-(ethylsulfamoyl)-4-[1,1-dioxidothiomorpholino]phenyl]thiazol-2-yl]cyclohexyl]carbamate], `CCNS(=O)(=O)c1cc(N2CCCCC2)ccc1-c1cnc([C@H]2CC[C@H](NC(=O)OC(C)C)CC2)s1` [Compound 135, isopropyl trans-N-[4-[5-[2-(ethylsulfamoyl)-4-[piperidin-1-yl]phenyl]thiazol-2-yl]cyclohexyl]carbamate] is lower in EC50: 1000 to 10000 nM for the first, 100 to 1000 nM for the second.

First: CCNS(=O)(=O)c1cc(Nc2ccnc(C(C)C)n2)ccc1-c1cnc([C@H]2CC[C@H](NC(=O)OC(C)C)CC2)s1 [Compound 136, isopropyl trans-N-[4-[5-[2-(ethylsulfamoyl)-4-[(2-isopropylpyrimidin-4-yl)amino]phenyl]thiazol-2-yl]cyclohexyl]carbamate]
Second: CCNS(=O)(=O)c1cc(Nc2cncc(C(C)C)n2)ccc1-c1cnc([C@H]2CC[C@H](NC(=O)OC(C)C)CC2)s1 [Compound 140, isopropyl trans-N-[4-[5-[2-(ethylsulfamoyl)-4-[(6-isopropylpyrazin-2-yl)amino]phenyl]thiazol-2-yl]cyclohexyl]carbamate]
The EC50 of the first is lower: < 100 nM for the first, 100 to 1000 nM for the second. The first is the more potent here.

First: CCNS(=O)(=O)c1cc(NC2COC2)ccc1-c1cnc([C@H]2CC[C@H](NC(=O)OC(C)C)CC2)s1 [Compound 137, isopropyl trans-N-[4-[5-[2-(ethylsulfamoyl)-4-[(oxetan-3-yl)amino]phenyl]thiazol-2-yl]cyclohexyl]carbamate]
Second: CCNS(=O)(=O)c1cc(NC2CNC2)ccc1-c1cnc([C@H]2CC[C@H](NC(=O)OC(C)C)CC2)s1 [Compound 144, isopropyl trans-N-[4-[5-[4-(azetidin-3-ylamino)-2-(ethyl-sulfamoyl)phenyl]thiazol-2-yl]cyclohexyl]carbamate]
The EC50 of the first is lower: < 100 nM for the first, 100 to 1000 nM for the second.

`CCNS(=O)(=O)c1cc(Nc2cn(C(C)C)cn2)ccc1-c1cnc([C@H]2CC[C@H](NC(=O)OC(C)C)CC2)s1` [Compound 139, isopropyl trans-N-[4-[5-[2-(ethylsulfamoyl)-4-[(1-isopropyl-1H-imidazol-4-yl)amino]phenyl]thiazol-2-yl]cyclohexyl]carbamate] and `CCNS(=O)(=O)c1cc(Nc2nccn2C(C)C)ccc1-c1cnc([C@H]2CC[C@H](NC(=O)OC(C)C)CC2)s1` [Compound 154, isopropyl trans-N-[4-[5-[2-(ethylsulfamoyl)-4-[(1-isopropylimidazol-2-yl)amino]phenyl]thiazol-2-yl]cyclohexyl]carbamate] cannot be ordered by EC50: < 100 nM for the first, < 100 nM for the second.

First: CCNS(=O)(=O)c1cc(Nc2ncc(C(C)C)[nH]2)ccc1-c1cnc([C@H]2CC[C@H](NC(=O)OC(C)C)CC2)s1 [Compound 142, isopropyl trans-N-[4-[5-[2-(ethylsulfamoyl)-4-[(5-isopropyl-1H-imidazol-2-yl)amino]phenyl]thiazol-2-yl]cyclohexyl]carbamate]
Second: CCNS(=O)(=O)c1cc(Nc2nnc[nH]2)ccc1-c1cnc([C@H]2CC[C@H](NC(=O)OC(C)C)CC2)s1 [Compound 152, isopropyl trans-N-[4-[5-[2-(ethylsulfamoyl)-4-(4H-1,2,4-triazol-3-ylamino)phenyl]thiazol-2-yl]cyclohexyl]carbamate]
The EC50 of the first is higher: 1000 to 10000 nM for the first, < 100 nM for the second.

`CCNS(=O)(=O)c1cc(Nc2ccc(C(C)C)nn2)ccc1-c1cnc([C@H]2CC[C@H](NC(=O)OC(C)C)CC2)s1` [Compound 143, isopropyl trans-N-[4-[5-[2-(ethylsulfamoyl)-4-[(6-isopropylpyridazin-3-yl)amino]phenyl]thiazol-2-yl]cyclohexyl]carbamate] and `CCNS(=O)(=O)c1cc(Nc2cn[nH]n2)ccc1-c1cnc([C@H]2CC[C@H](NC(=O)OC(C)C)CC2)s1` [Compound 149, isopropyl trans-N-[4-[5-[2-(ethylsulfamoyl)-4-(2H-triazol-4-ylamino)phenyl]thiazol-2-yl]cyclohexyl]carbamate] cannot be ordered by EC50: < 100 nM for the first, < 100 nM for the second.

First: CCNS(=O)(=O)c1cc(NC2CN(CC(C)C)C2)ccc1-c1cnc([C@H]2CC[C@H](NC(=O)OC(C)C)CC2)s1 [Compound 145, isopropyl trans-N-[4-[5-[2-(ethylsulfamoyl)-4-[(1-isobutyl-azetidin-3-yl)amino]phenyl]thiazol-2-yl]cyclohexyl]carbamate]
Second: CCNS(=O)(=O)c1cc(NC2CN(C(=O)C(C)C)C2)ccc1-c1cnc([C@H]2CC[C@H](NC(=O)OC(C)C)CC2)s1 [Compound 146, isopropyl trans-N-[4-[5-[2-(ethylsulfamoyl)-4-[[1-(2-methylpropanoyl)azetidin-3-yl]amino]phenyl]thiazol-2-yl]cyclohexyl]carbamate]
The EC50 of the first is higher: 100 to 1000 nM for the first, < 100 nM for the second.

First: CCNS(=O)(=O)c1cc(NC2(C)CNC2)ccc1-c1cnc([C@H]2CC[C@H](NC(=O)OC(C)C)CC2)s1 [Compound 147, isopropyl trans-N-[4-[5-[2-(ethylsulfamoyl)-4-[(3-methylazetidin-3-yl)amino]phenyl]thiazol-2-yl]cyclohexyl]carbamate]
Second: CCNS(=O)(=O)c1cc(N(C)c2ncc[nH]2)ccc1-c1cnc([C@H]2CC[C@H](NC(=O)OC(C)C)CC2)s1 [Compound 150, isopropyl trans-N-[4-[5-[2-(ethylsulfamoyl)-4-[1H-imidazol-2-yl(methyl)amino]phenyl]thiazol-2-yl]cyclohexyl]carbamate]
The EC50 of the first is higher: 1000 to 10000 nM for the first, 100 to 1000 nM for the second. The second is the more potent here.

`CC(C)OC(=O)N[C@H]1CC[C@H](c2ncc(-c3ccc(Nc4ncc[nH]4)cc3S(=O)(=O)N3CCC3)s2)CC1` [Compound 148, isopropyl trans-N-[4-[5-[2-(azetidin-1-ylsulfonyl)-4-(1H-imidazol-2-ylamino)phenyl]thiazol-2-yl]cyclohexyl]carbamate] and `CC(C)OC(=O)N[C@H]1CC[C@H](c2ncc(-c3ccc(Nc4ncco4)cc3S(=O)(=O)N3CCCC3)s2)CC1` [Compound 153, isopropyl trans-[4-[5-[4-(oxazol-2-ylamino)-2-pyrrolidin-1-ylsulfonyl-phenyl]thiazol-2-yl]cyclohexyl]carbamate] cannot be ordered by EC50: < 100 nM for the first, < 100 nM for the second.

`CC(C)OC(=O)N[C@H]1CC[C@H](c2ncc(-c3ccc(Nc4nnc[nH]4)cc3S(=O)(=O)NC(C)(C)C)s2)CC1` [Compound 151, isopropyl trans-N-[4-[5-[2-(tert-butylsulfamoyl)-4-(4H-1,2,4-triazol-3-ylamino)phenyl]thiazol-2-yl]cyclohexyl]carbamate] was tested, and the EC50 was < 100 nM.

Same assay, conditions: Homo sapiens, Daudi, 168 h, read-out: Cellular activity in AID + (Daudi)

Work on `CCNS(=O)(=O)c1cc(Nc2ncc(C)[nH]2)ccc1-c1cnc([C@H]2CC[C@H](NC(=O)OC(C)C)CC2)s1` [Compound 141, isopropyl trans-N-[4-[5-[2-(ethylsulfamoyl)-4-[(5-methyl-1H-imidazol-2-yl)amino]phenyl]thiazol-2-yl]cyclohexyl]carbamate] yielded an EC50 of 1000 to 10000 nM.
